Among the data in ChEMBL document CHEMBL1687721, “New drugs against tuberculosis: problems, progress, and evaluation of agents in clinical development” (Antimicrob Agents Chemother, 2009) are MIC values, retold here.

Values after ≈ are worked out from the molar mass of the structure shown.

What all share (assay type): functional
Assay [1] has as its system Mycobacterium tuberculosis. Briefly: Antimicrobial activity against multiple drug-resistant Mycobacterium tuberculosis.
The subject of assay [2] is Mycobacterium tuberculosis. Description: Antimicrobial activity against compound-resistant Mycobacterium tuberculosis.
For assay [3], the system named is Mycobacterium tuberculosis. Briefly: Antimicrobial activity against rifampicin-resistant Mycobacterium tuberculosis.

`COc1nc2ccc(Br)cc2cc1[C@@H](c1ccccc1)[C@@](O)(CCN(C)C)c1cccc2ccccc12` [BEDAQUILINE] had an MIC in assay [1] of 0.03 µg/mL (≈ 0.054 µM).

In assay [2], `C[C@]1(COc2ccc(N3CCC(Oc4ccc(OC(F)(F)F)cc4)CC3)cc2)Cn2cc([N+](=O)[O-])nc2O1` displayed an MIC of 0.006 µg/mL (≈ 0.0112 µM). Still for that read-out and setting: next, `CC(C)=CCC/C(C)=C/CNCCNC1C2CC3CC(C2)CC1C3` (stereo unspecified) [SQ109]: 0.16 µg/mL (≈ 0.484 µM). For `COc1c(N2CCNC(C)C2)c(F)cc2c(=O)c(C(=O)O)cn(C3CC3)c12` (stereo unspecified) [GATIFLOXACIN], the MIC in assay [3] is 0.2 µg/mL (≈ 0.533 µM). `O=[N+]([O-])c1cn2c(n1)OC[C@@H](OCc1ccc(OC(F)(F)F)cc1)C2` [PRETOMANID] showed an MIC in assay [1] of 0.015 µg/mL (≈ 0.0418 µM). Turning to `CO[C@H]1/C=C/O[C@@]2(C)Oc3c(C)c(O)c4c(O)c(c(/C=N/N5CCN(C6CCCC6)CC5)c(O)c4c3C2=O)NC(=O)/C(C)=C\C=C\[C@H](C)[C@H](O)[C@@H](C)[C@@H](O)[C@@H](C)[C@H](OC(C)=O)[C@@H]1C` [RIFAPENTINE], the MIC in assay [3] is 0.02 µg/mL (≈ 0.0228 µM).
